Tested on: Trypanosoma cruzi
Test: Antitrypanosomal activity against Trypanosoma cruzi Y trypomastigotes after 1 day
Type: functional, organism-based
Conditions: 24 h

Row | SMILES | IC50 [µM]
1 | O=C(Cn1ccnc1[N+](=O)[O-])NCc1ccccc1 [BENZNIDAZOLE] | 104
2 | CC1(C)OC2=C(C(=O)C(=O)c3ccccc32)C1n1cc(-c2ccccc2)nn1 (centres undefined) | 17.3
3 | CN(C)c1ccc(C(=C2C=CC(=[N+](C)C)C=C2)c2ccc(N(C)C)cc2)cc1 [GENTIAN VIOLET] | 536
4 | CC1(C)OC2=C(C(=O)C(=O)c3ccccc32)C1N=[N+]=[N-] (centres undefined) | 50.2
5 | CC1(C)OC2=C(C(=O)C(=O)c3ccccc32)C1n1cc(COC2CCCCO2)nn1 (centres undefined) | 257
6 | CC(C)=CC1=C(O)C(=O)c2ccccc2C1=O | 1280

Other lines, results leading:

Row | IC50 [µM] | SMILES
7 | 152 | CC(C)(O)c1cn(C2C3=C(OC2(C)C)c2ccccc2C(=O)C3=O)nn1 (centres undefined)
8 | 57.8 | CC1(C)OC2=C(C(=O)C(=O)c3ccccc32)C1n1cc(C2(O)CCCCC2)nn1 (centres undefined)
9 | 348 | CC1(C)OC2=C(C(=O)C(=O)c3ccccc32)C1n1cc(CO)nn1 (centres undefined)

From ChEMBL document CHEMBL1140963, “Naphthoquinoidal [1,2,3]-triazole, a new structural moiety active against Trypanosoma cruzi” (Eur J Med Chem, 2008)
